Earlier results on 2 compounds are cited in patent US20090254175A1, “Valved stent for chronic venous insufficiency” (priority 2008, published 2009).

As for `C[C@H](CCC(=O)O)[C@H]1CC[C@H]2[C@@H]3CC[C@@H]4C[C@H](O)CC[C@]4(C)[C@H]3C[C@H](O)[C@]12C` [Deoxycholic acid], the “solubility in acetic acid” value is reported as “soluble” and the solubility in alcohol result was “soluble”. The “solubility in acetone and glacial acetic acid” value (acetone and glacial acetic acid, compared with alcohol) is reported as “to a lesser extent”. Besides, the solubility in water entry (water) is on record as “sparingly soluble”.
Take `C[C@H](CCC(=O)O)[C@H]1CC[C@H]2[C@@H]3[C@@H](O)C[C@@H]4C[C@H](O)CC[C@]4(C)[C@H]3CC[C@]12C` [ursodeoxycholic acid, reference compound]: the “solubility in acetic acid” value is reported as “soluble” and the solubility in alcohol entry was “soluble”.
